From ChEMBL document CHEMBL1201862, “PubChem BioAssay data set” (2004) come the findings set out here.

Each structure is given as a SMILES string.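 Five compound concentrations were applied to cells in 96-well plates for 48 hours; endpoints were derived by simple linear interpolation of the resulting dose-response curve. The concentration for 50% growth inhibition is given as GI50.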 Calls of active or inactive are those of the source. Rule as the data show it: active = GI50 up to about 1.1 µM and inactive = higher.

Some test systems named below: CAKI-1; CCRF-CEM; HOP-62; K562; LOX IMVI; MDA-MB-231; Malme-3M; NCI/ADR-RES; OVCAR-3; OVCAR-5; RPMI-8226; SF-295; SK-OV-3; SNB-75; SR; T47D; TK-10; UO-31; Hs-578T; RXF 393.
Experiment in all cases: NCI tumour cell line growth inhibition, 48 h

With `COC(=O)/C=C(/C=C1/C(C#N)=C(N)N(c2ccc(Cl)cc2)C1(C)/C(=C/C(=O)OC)C(=O)OC)C(=O)OC` (stereo not given), the GI50 was > 100 µM (inactive) in the assay on CAKI-1; 27 µM (inactive) with CCRF-CEM; > 100 µM (inactive) in the assay on HOP-62; 20.6 µM (inactive) with K562; 23.9 µM (inactive) in the assay with LOX IMVI; 8.69 µM (inactive) in the assay with MDA-MB-231. Also, the GI50 in the assay on Malme-3M was 51.2 µM (inactive); in the assay with NCI/ADR-RES it was 53 µM (inactive); with OVCAR-3 it was 81.8 µM (inactive); in the assay with OVCAR-5, > 100 µM (inactive); in the assay on RPMI-8226, 24.7 µM (inactive); with SF-295, 53.1 µM (inactive). In addition, the GI50 is 52.5 µM (inactive) in the assay with SK-OV-3; 20.5 µM (inactive) in the assay on SNB-75; 29.6 µM (inactive) with SR; 49.1 µM (inactive) in the assay with T47D; 60.1 µM (inactive) with TK-10; 64.1 µM (inactive) in the assay with UO-31.
`Cc1c(-c2ccc(O)cc2)n(CCCCCCNCCOC(=O)NCCCc2ccc(N(CCCl)CCCl)cc2)c2ccc(O)cc12`: the GI50 in the assay on CAKI-1 was 11.1 µM (inactive); in the assay on CCRF-CEM, 1.67 µM (inactive); in the assay on HOP-62 it was 2.54 µM (inactive); in the assay on Hs-578T, 1.98 µM (inactive); with K562, 2.67 µM (inactive); with LOX IMVI, 1.5 µM (inactive). Besides, the GI50 with MDA-MB-231 is 1.83 µM (inactive); in the assay on Malme-3M, 1.6 µM (inactive); in the assay with OVCAR-3 it was 2.16 µM (inactive); in the assay on OVCAR-5, 15.1 µM (inactive); in the assay on RPMI-8226, 1.31 µM (inactive); in the assay on SF-295 it was 2.21 µM (inactive). In addition, the GI50 was 10.2 µM (inactive) in the assay on SK-OV-3; 1.98 µM (inactive) in the assay on SNB-75; 0.809 µM (active) in the assay with SR; 0.0552 µM (active) with T47D; 2.24 µM (inactive) in the assay on TK-10.
On to `CCCCCCCc1ccc(-c2nnc(/N=N/c3ccc(OCCCCC)cc3)s2)s1`, for which the GI50 with CAKI-1, in the assay on CCRF-CEM, in the assay with HOP-62, in the assay with Hs-578T, in the assay with MDA-MB-231 and in the assay with Malme-3M was > 100 µM (inactive) each time. Moreover, the GI50 in the assay with NCI/ADR-RES, in the assay with OVCAR-3, in the assay on OVCAR-5, in the assay on RPMI-8226, with RXF 393 and in the assay with SF-295 was > 100 µM (inactive) in each case. Moreover, the GI50 in the assay with SK-OV-3, in the assay on SNB-75, in the assay on T47D, in the assay on TK-10 and in the assay on UO-31 was > 100 µM (inactive) throughout.
Regarding `O=C(O)c1cc2ccccc2c(/N=N/c2ccccc2)c1O`, the GI50 was 35.6 µM (inactive) in the assay with CAKI-1; 38.5 µM (inactive) in the assay on CCRF-CEM; 14.8 µM (inactive) in the assay with HOP-62; 6.82 µM (inactive) with Hs-578T; 36.8 µM (inactive) in the assay on K562; > 100 µM (inactive) in the assay on MDA-MB-231. The GI50 was 13.1 µM (inactive) in the assay with Malme-3M; 27.2 µM (inactive) in the assay with NCI/ADR-RES; 26.2 µM (inactive) in the assay on OVCAR-3; 24.9 µM (inactive) with OVCAR-5; 21.6 µM (inactive) with RPMI-8226; 34.9 µM (inactive) in the assay on RXF 393. Further, the GI50 in the assay with SF-295 was 12.4 µM (inactive); in the assay on SK-OV-3 it was 41.9 µM (inactive); in the assay on SNB-75 it was 19.8 µM (inactive); in the assay on T47D, 38.1 µM (inactive); in the assay with TK-10 it was 29 µM (inactive); in the assay on UO-31 it was 31.2 µM (inactive).
Turning to `Cc1cc(C)c2c(-c3ccccc3)cc(=O)[nH]c2c1`, the GI50 in the assay on CCRF-CEM, with HOP-62, in the assay on Hs-578T, in the assay with K562, with LOX IMVI and in the assay on MDA-MB-231 was > 100 µM (inactive) each time. The GI50 in the assay with Malme-3M, in the assay on NCI/ADR-RES, in the assay with OVCAR-3, in the assay on OVCAR-5, in the assay with RPMI-8226 and in the assay with RXF 393 was > 100 µM (inactive) in each case. Besides, the GI50 in the assay with SF-295, with SK-OV-3, in the assay on SNB-75, in the assay with T47D and in the assay with TK-10 was > 100 µM (inactive) each time.
Consider `CCOC(=O)CCC(C(=O)OCC)n1nnc2ccc(Nc3c(C)[n+]([O-])c4cc(Cl)ccc4[n+]3[O-])cc21` (stereo not given), for which the GI50 in the assay on CAKI-1 is 34.4 µM (inactive); with CCRF-CEM it was 29.1 µM (inactive); in the assay with HOP-62, 31.9 µM (inactive); in the assay on Hs-578T, 32.4 µM (inactive); in the assay on K562, 22.6 µM (inactive); with LOX IMVI it was 17.7 µM (inactive). For the same compound, the GI50 was 17.3 µM (inactive) in the assay with Malme-3M; 31.8 µM (inactive) in the assay on NCI/ADR-RES; 17.7 µM (inactive) in the assay with OVCAR-3; 46.5 µM (inactive) in the assay on OVCAR-5; 20.9 µM (inactive) with RPMI-8226; 22.4 µM (inactive) in the assay with RXF 393. The GI50 in the assay on SF-295 was 68.1 µM (inactive); with SK-OV-3, 99.5 µM (inactive); with SNB-75 it was 44.7 µM (inactive); in the assay on SR, 30.3 µM (inactive); with T47D, 19.5 µM (inactive); in the assay on TK-10, 71.8 µM (inactive). In addition, the GI50 in the assay on UO-31 was 34.8 µM (inactive).
As to `Cc1nc(C)c(C(=O)NNC(N)=S)cc1C(=O)NNC(N)=S`, the GI50 in the assay on CAKI-1, in the assay with HOP-62, with Hs-578T, in the assay with K562, with LOX IMVI and with MDA-MB-231 was > 100 µM (inactive) in each case. For the same compound, the GI50 in the assay with NCI/ADR-RES, in the assay on OVCAR-3, with OVCAR-5, in the assay with RPMI-8226, in the assay on RXF 393 and in the assay with SF-295 was > 100 µM (inactive) throughout. The GI50 in the assay on SK-OV-3, in the assay with T47D, in the assay on TK-10 and in the assay with UO-31 was > 100 µM (inactive) each time.
Consider `COc1ccccc1C1=C2C(=O)N(C)C(c3ccccc3OC)=C2C(=O)N1C`, for which the GI50 was > 100 µM (inactive) with CAKI-1; > 100 µM (inactive) in the assay on CCRF-CEM; 18.9 µM (inactive) with HOP-62; 43.8 µM (inactive) with Hs-578T; > 100 µM (inactive) in the assay on K562; > 100 µM (inactive) in the assay with LOX IMVI. In addition, the GI50 with MDA-MB-231 was 48.1 µM (inactive); in the assay with Malme-3M, 45.4 µM (inactive); in the assay on NCI/ADR-RES, 45.7 µM (inactive); with OVCAR-3, 33.5 µM (inactive); with OVCAR-5, > 100 µM (inactive); in the assay with SF-295, 51.4 µM (inactive). The GI50 was 69.8 µM (inactive) in the assay with SK-OV-3, 71.3 µM (inactive) in the assay with T47D, 70.6 µM (inactive) with TK-10 and 50.8 µM (inactive) in the assay with UO-31.
Regarding `COc1cc([C@@H]2c3cc4c(cc3[C@@H](NCCNCCO)[C@H]3COC(=O)[C@H]23)OCO4)cc(OC)c1O`, the GI50 in the assay on CAKI-1 is 2.83 µM (inactive); in the assay on CCRF-CEM it was 0.0861 µM (active); in the assay with HOP-62, 1.2 µM (inactive); in the assay with Hs-578T it was 2.63 µM (inactive); in the assay on K562 it was 1.04 µM (active); in the assay with MDA-MB-231 it was 3.69 µM (inactive). Besides, the GI50 was > 99.5 µM (inactive) in the assay with NCI/ADR-RES; 2.02 µM (inactive) in the assay with RXF 393; 2.33 µM (inactive) in the assay with SK-OV-3; 1.19 µM (inactive) in the assay on SNB-75; 0.841 µM (active) with T47D; 7.38 µM (inactive) in the assay with TK-10. In addition, the GI50 in the assay on UO-31 is 15.4 µM (inactive).
Consider `CC12CC3c4ccccc4CN1C3(c1ccccc1)OC2=O` (stereo not given), for which the GI50 in the assay on CAKI-1, in the assay on CCRF-CEM, in the assay with HOP-62, in the assay with Hs-578T, with LOX IMVI and with MDA-MB-231 was > 100 µM (inactive) each time. In addition, the GI50 in the assay on Malme-3M, with NCI/ADR-RES, in the assay on OVCAR-5, with RXF 393, in the assay on SF-295 and in the assay with SK-OV-3 was > 100 µM (inactive) each time. Moreover, the GI50 with SNB-75, in the assay on T47D, with TK-10 and with UO-31 was > 100 µM (inactive) in each case.
`Cc1nc2c(cc1OCc1ccccc1)C(=O)C1=C(C2=O)C2OC(=O)CC2OC1(C)C` (stereo not given): the GI50 with CAKI-1 is 0.468 µM (active); in the assay on CCRF-CEM, 0.17 µM (active); with HOP-62, 1.52 µM (inactive); in the assay on Hs-578T it was 0.169 µM (active); in the assay on LOX IMVI, 0.215 µM (active); in the assay on MDA-MB-231, 0.43 µM (active). Also, the GI50 in the assay on Malme-3M is 0.474 µM (active); in the assay on NCI/ADR-RES, 3.14 µM (inactive); in the assay on OVCAR-5, 0.973 µM (active); in the assay with RPMI-8226, 0.368 µM (active); with RXF 393 it was 0.349 µM (active); in the assay on SNB-75 it was 1.66 µM (inactive). Besides, the values for the GI50 in the assay with T47D, in the assay with TK-10 and in the assay with UO-31 were 0.288 µM (active), 1.43 µM (inactive) and 1.68 µM (inactive), respectively.
As to `CCCCOC(=O)C(NC(C(=O)OCCCC)c1cc(C(C)(C)C)c(O)c(C(C)(C)C)c1)c1cc(C(C)(C)C)c(O)c(C(C)(C)C)c1` (stereo not given), the GI50 with CAKI-1 is > 100 µM (inactive); with CCRF-CEM, 73.8 µM (inactive); with HOP-62, > 100 µM (inactive); in the assay with Hs-578T, > 100 µM (inactive); with K562, 56.9 µM (inactive); in the assay with LOX IMVI, > 100 µM (inactive). In addition, the GI50 in the assay with MDA-MB-231 was > 100 µM (inactive); in the assay on Malme-3M, > 100 µM (inactive); in the assay with NCI/ADR-RES it was > 100 µM (inactive); in the assay with OVCAR-3, > 100 µM (inactive); in the assay on OVCAR-5 it was > 100 µM (inactive); in the assay on RPMI-8226 it was 31.5 µM (inactive). The GI50 is > 100 µM (inactive) with SF-295; > 100 µM (inactive) in the assay with SK-OV-3; 8.63 µM (inactive) in the assay on SNB-75; > 100 µM (inactive) in the assay on T47D; > 100 µM (inactive) in the assay on TK-10; 74.6 µM (inactive) in the assay on UO-31.
